Literature values in patent US20070031570A1, “Hydrothermically processed compositions containing phytosterols” (Archer-Daniels-Midland Company, priority 2002, published 2007).
Read-outs that look alike come from different tables or passages of the source.

What was measured:
[1] = not given; remark: listed apart in the source
[2] = 2.8 g sitostanol/day given as sitostanol ester in margarine

## CC[C@H](CC[C@@H](C)[C@H]1CC[C@H]2[C@@H]3CC[C@H]4C[C@@H](O)CC[C@]4(C)[C@H]3CC[C@]12C)C(C)C [sitostanol]
Subjects with moderate hypercholesterolemia, 3 g/day
  effect on serum cholesterol: no effect
Subjects with severe hypercholesterolemia, 1.5 g/day
  reduced serum cholesterol: 15%
[1]; delivery system which avoids an oil phase ('562 and '776 patents)
  reduces cholesterol absorption: ≤ 37%

## CC[C@H](CC[C@@H](C)[C@H]1CC[C@H]2[C@@H]3CC=C4C[C@@H](O)CC[C@]4(C)[C@H]3CC[C@]12C)C(C)C [sitosterol]
dose-response study, 3-9 g/day of powdered sitosterol
  decrease serum cholesterol levels: 12%
Doses of 5-18 g sitosterol/day
  reduced serum cholesterol: 16-20%

## neomycin
[1]; orally-administered
  effect on cholesterol absorption: reduces cholesterol absorption effectively

## sitostanol ester
[2]
  reduced LDL cholesterol: 16%
[1]; humans, dissolved in dietary fat
  less effective at reducing cholesterol absorption compared to the unesterified sterol: 21%
